This note sets out measurements from ChEMBL document CHEMBL1201862, “PubChem BioAssay data set” (2004).

Test systems include NCI-H522; Malme-3M; Hs-578T; A549; BT-549; U-251; 786-0; OVCAR-3; SK-MEL-2; TK-10; MOLT-4; NCI-H23; MDA-MB-435; COLO 205; UO-31; DU-145; CCRF-CEM; OVCAR-8; OVCAR-4; NCI-H460.
Common to all, as to experiment: NCI anticancer screen, dose series, 48 h

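Interpolation was linear, between the two tested concentrations surrounding the appropriate level; five concentrations were tested over 48 hours in 96-well plates. Here, GI50 denotes the concentration required for 50% inhibition of growth.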 The source made the active and inactive calls. Rule as the data show it: active = GI50 up to about 1.1 µM and inactive = higher. A value given as a limit tells only on which side of the number the result lay.

As to `CN(C)CCNc1ncnc2nc(-c3ccccc3)c(-c3ccccc3)nc12`, the GI50 in the test on NCI-H522, in the test on Malme-3M, in the test on Hs-578T, with A549, in the test with BT-549 and in the test on U-251 was > 100 µM (inactive) in each case. In addition, the GI50 was > 100 µM (inactive) in the test on 786-0; > 100 µM (inactive) in the test with OVCAR-3; > 100 µM (inactive) in the test with SK-MEL-2; > 100 µM (inactive) in the test with TK-10; 0.094 µM (active) in the test with MOLT-4; > 100 µM (inactive) in the test with NCI-H23. The GI50 with MDA-MB-435, in the test on COLO 205, in the test on UO-31, with DU-145, in the test with CCRF-CEM and in the test on OVCAR-8 was > 100 µM (inactive) each time.
Consider `O=c1/c(=C/c2ccc([N+](=O)[O-])o2)sc2n1[C@@H](c1ccc(Cl)cc1)C=C(c1cc(F)c(Cl)cc1Cl)N=2`, for which the GI50 in the test on NCI-H522 was 18.3 µM (inactive); in the test on Malme-3M, 17.9 µM (inactive); in the test on Hs-578T, 56.5 µM (inactive); in the test on A549 it was 30.3 µM (inactive); with OVCAR-4 it was 16.6 µM (inactive); in the test on BT-549, 15.1 µM (inactive). In addition, the GI50 was 8.02 µM (inactive) in the test on U-251; 4.71 µM (inactive) in the test with 786-0; 5.04 µM (inactive) in the test with SK-MEL-2; 16.1 µM (inactive) in the test with TK-10; 12.9 µM (inactive) in the test with MOLT-4; 15.3 µM (inactive) with NCI-H23. Moreover, the GI50 is 16.1 µM (inactive) with MDA-MB-435; 3.94 µM (inactive) in the test with COLO 205; 10 µM (inactive) in the test with NCI-H460; 14.7 µM (inactive) with UO-31; 17.7 µM (inactive) in the test on DU-145; 4.83 µM (inactive) with CCRF-CEM. The GI50 in the test on OVCAR-8 was 4.16 µM (inactive).
In the case of `CCOC(=O)c1nc2cc(C(F)(F)F)ccc2nc1Nc1cc(OC)c(OC)c(OC)c1`, the GI50 in the test with NCI-H522, in the test on Malme-3M, in the test on Hs-578T, with A549, in the test with BT-549 and in the test on U-251 was > 100 µM (inactive) throughout. The GI50 in the test on 786-0, in the test with OVCAR-3, in the test with TK-10, in the test on MOLT-4, in the test with NCI-H23 and with MDA-MB-435 was > 100 µM (inactive) throughout. The GI50 in the test on COLO 205, in the test with NCI-H460, in the test with UO-31, in the test on DU-145, in the test on CCRF-CEM and with OVCAR-8 was > 100 µM (inactive) each time.
In the case of `O=c1[nH]c(=O)n(C2CC(O)C(CO)O2)cc1OCCc1ccccc1` (stereo not drawn), the GI50 in the test on NCI-H522, in the test on Malme-3M, in the test with Hs-578T, in the test with A549, with OVCAR-4 and in the test with BT-549 was > 100 µM (inactive) throughout. Also, the GI50 with U-251, in the test with 786-0, in the test with OVCAR-3, with TK-10, in the test with MOLT-4 and in the test with NCI-H23 was > 100 µM (inactive) each time. Moreover, the GI50 with MDA-MB-435 is > 100 µM (inactive); in the test with COLO 205, > 100 µM (inactive); in the test on NCI-H460 it was > 10 µM (inactive); in the test with UO-31, > 100 µM (inactive); in the test with DU-145 it was > 100 µM (inactive); with CCRF-CEM it was > 100 µM (inactive). Further, the GI50 in the test on OVCAR-8 was > 100 µM (inactive).
On to `COC(=O)c1cc(-c2ccc3ccccc3c2)nc(O)c1C#N`, for which the GI50 in the test with NCI-H522, with Malme-3M, in the test with Hs-578T, in the test on A549, with OVCAR-4 and in the test on BT-549 was > 100 µM (inactive) throughout. In addition, the GI50 in the test with U-251, in the test on 786-0, in the test with OVCAR-3, in the test on SK-MEL-2, with TK-10 and in the test on NCI-H23 was > 100 µM (inactive) each time. In addition, the GI50 with MDA-MB-435, with COLO 205, in the test on NCI-H460, in the test with UO-31, with DU-145 and in the test with OVCAR-8 was > 100 µM (inactive) each time.
Regarding `NCCNS(=O)(=O)c1ccc(N)cc1`, the GI50 was > 100 µM (inactive) in the test with NCI-H522; > 100 µM (inactive) in the test with Malme-3M; 66.1 µM (inactive) with Hs-578T; > 100 µM (inactive) in the test on A549; > 100 µM (inactive) with OVCAR-4; > 100 µM (inactive) in the test on BT-549. Moreover, the GI50 in the test on U-251, with 786-0, with OVCAR-3, in the test with SK-MEL-2, in the test on TK-10 and in the test with MOLT-4 was > 100 µM (inactive) in each case. Also, the GI50 in the test with NCI-H23 is > 100 µM (inactive); with MDA-MB-435 it was > 100 µM (inactive); in the test on COLO 205, > 100 µM (inactive); in the test with UO-31 it was > 100 µM (inactive); in the test on DU-145, > 100 µM (inactive); in the test on CCRF-CEM it was 32.8 µM (inactive). For the same compound, in the test with OVCAR-8, the GI50 was > 100 µM (inactive).
`CC(=O)OCC1OC(n2c(-c3ccc(C)cc3)cc(-c3ccccc3)c(C#N)c2=S)C(OC(C)=O)C(OC(C)=O)C1OC(C)=O` (stereo not drawn): the GI50 in the test on NCI-H522 was > 100 µM (inactive); in the test with Malme-3M, > 100 µM (inactive); with Hs-578T, 65.2 µM (inactive); in the test on A549, > 100 µM (inactive); with OVCAR-4 it was 81.1 µM (inactive); in the test on BT-549 it was > 100 µM (inactive). Besides, the GI50 with U-251, with 786-0, in the test on OVCAR-3, in the test with TK-10, in the test with MOLT-4 and with NCI-H23 was > 100 µM (inactive) throughout. Besides, the GI50 in the test with MDA-MB-435, in the test with COLO 205, in the test on NCI-H460, with UO-31, in the test with DU-145 and in the test on OVCAR-8 was > 100 µM (inactive) throughout.
In the case of `OCC(CCc1c[nH]c2ccccc12)c1c[nH]c2ccccc12` (stereo not drawn), the GI50 in the test with NCI-H522 was 16 µM (inactive); in the test with Malme-3M, 17 µM (inactive); in the test on Hs-578T, 20.8 µM (inactive); in the test on A549, 17.6 µM (inactive); with OVCAR-4, 17.9 µM (inactive); with BT-549, 16.5 µM (inactive). Besides, the GI50 was 16.7 µM (inactive) in the test with U-251; 16 µM (inactive) with 786-0; 27.3 µM (inactive) in the test on OVCAR-3; 16.5 µM (inactive) in the test on SK-MEL-2; 19.6 µM (inactive) in the test on TK-10; 14.5 µM (inactive) in the test with MOLT-4. Besides, the GI50 in the test with NCI-H23 is 15.6 µM (inactive); with MDA-MB-435 it was 18.4 µM (inactive); in the test on COLO 205 it was 16.9 µM (inactive); in the test with NCI-H460 it was 14.6 µM (inactive); in the test with UO-31, 12.6 µM (inactive); in the test on DU-145, 16.7 µM (inactive). Besides, in the test with OVCAR-8, the GI50 is 20.7 µM (inactive).
